These results are taken from ChEMBL document CHEMBL4431352, “Structure-activity relationship of Garcinia xanthones analogues: Potent Hsp90 inhibitors with cytotoxicity and antiangiogenesis activity” (Bioorg Med Chem, 2016).

In this test the target is Heat shock protein HSP 90-alpha (Homo sapiens, UniProt P07900). In words: Inhibition of 6x-His tagged human recombinant full length Hsp90alpha ATPase preincubated for 0.5 hrs followed by ATP addition measured after 30 mins by HTRF assay. (Time-resolved FRET reads energy transfer from a long-lived donor to a nearby acceptor.)

With `C/C(=C\CC12OCC3CC(C1=O)C1OC14C(=O)c1c(O)cccc1OC324)CC(=O)O` (configuration not stated), the IC50 turned out to be 43 µM.

As to `C=CCC12OCC3CC(C=C4C(=O)c5c(O)cccc5OC431)C2=O` (configuration not stated), the IC50 came out at 8.52 µM.

`CC(C)=CCC12OC(C)(C)C3CC(C=C4C(=O)c5ccccc5OC431)C2=O` (configuration not stated): the IC50 was found to be 23.9 µM.

For the molecule `C/C(=C\CC12OC(C)(C)C3CC(C=C4C(=O)c5c(O)cccc5OC431)C2=O)CO` (configuration not stated), the IC50 turned out to be 27.3 µM.

As for `C/C(=C\CC12OC(C)(C)C3CC(C=C4C(=O)c5c(O)cccc5OC431)C2=O)CC=O` (configuration not stated), the IC50 stood at 22.6 µM.

Turning to `CC(=O)Oc1cccc2c1C(=O)C1=CC3CC4COC(CC=C(C)C)(C3=O)C14O2` (configuration not stated), the concentration for half-maximal inhibition (IC50) stood at 52.7 µM.

`CC(C)=CCC12OC(C)(C)C3CC(C=C4C(=O)c5c(OCC(=O)O)cccc5OC431)C2=O` (configuration not stated): the IC50 was more than 100 µM.

Turning to `C=CCC12OCC3CC(C=C4C(=O)c5ccccc5OC431)C2=O` (configuration not stated), the IC50 worked out at 28 µM.

In the case of `CC(C)=CCC12OCC3CC(C=C4C(=O)c5c(O)cccc5OC431)C2=O` (configuration not stated), the IC50 turned out to be 14.3 µM.

As to `CC(C)=CCC12OC(C)(C)C3CC(C=C4C(=O)c5c(O)cccc5OC431)C2=O` (configuration not stated), the IC50 was found to be 15.5 µM.

In the case of `CC(C)=CCC12OCC3CC(C=C4C(=O)c5c(cccc5OS(C)(=O)=O)OC431)C2=O` (configuration not stated), the IC50 came out at 13.6 µM.

Consider `COc1cccc2c1C(=O)C1=CC3CC4C(C)(C)OC(CC=C(C)C)(C3=O)C14O2` (configuration not stated), for which the concentration for half-maximal inhibition (IC50) is 76.8 µM.

As a reminder, the IC50 is the midpoint of a concentration-inhibition curve.
